In ChEMBL document CHEMBL1201862, “PubChem BioAssay data set” (2004):
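Test compounds were applied to cells in 96-well plates for 48 hours at 5 doses. GI50: concentration for 50% inhibition of growth.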 Activity calls are given as the source filed them. Cut-off read from the data, not from the text of the source: active = GI50 up to about 1.1 µM and inactive = higher.

Columns and labels:
Assay in all cases: NCI-60 cell line screen, 48 h
[1] = system: HT-29
[2] = system: ACHN
[3] = system: LOX IMVI
[4] = system: IGROV-1
[5] = system: SNB-75
[6] = system: 786-0
[7] = system: UACC-62
[8] = system: EKVX
[9] = system: SK-MEL-5
[10] = system: HCC 2998
[11] = system: TK-10
[12] = system: HCT-116
[13] = system: HCT-15
[14] = system: HOP-92
[15] = system: SNB-78
[16] = system: HL-60
[17] = system: KM-20L2
[18] = system: MOLT-4
[19] = system: U-251
[20] = system: CCRF-CEM
[21] = system: A549
[22] = system: SW-620
[23] = system: HOP-18
[24] = system: LXFL 529
[25] = system: K562
[26] = system: OVCAR-3
[27] = system: DLD-1
[28] = system: M14
[29] = system: COLO 205
[30] = system: KM12
[31] = system: SF-295
[32] = system: SK-MEL-28
[33] = system: DMS-114
[34] = system: NCI-H23
[35] = system: RPMI-8226
[36] = system: SNB-19
[37] = system: SN12C
[38] = system: OVCAR-8
[39] = system: M19-MEL
[40] = system: NCI-H460
[41] = system: SF-539
[42] = system: UO-31
[43] = system: DMS-273
[44] = system: SK-MEL-2
[45] = system: OVCAR-4
[46] = system: SK-OV-3
[47] = system: A498
[48] = system: XF498
[49] = system: Malme-3M
[50] = system: NCI-H226
[51] = system: UACC-257
[52] = system: SF-268
[53] = system: CAKI-1
[54] = system: NCI-H522
[55] = system: RXF 393
[56] = system: OVCAR-5

Compound: COc1ccc(-c2oc3cc(O)c(OC)c(O)c3c(=O)c2OC2OC(CO)C(O)C(O)C2O)cc1 (centres undefined)
- GI50 [1]: > 100 µM (inactive)
- GI50 [2]: 91.2 µM (inactive)
- GI50 [3]: > 100 µM (inactive)
- GI50 [4]: > 100 µM (inactive)
- GI50 [5]: > 100 µM (inactive)
- GI50 [6]: > 100 µM (inactive)
- GI50 [7]: > 100 µM (inactive)
- GI50 [8]: > 100 µM (inactive)
- GI50 [9]: > 100 µM (inactive)
- GI50 [10]: > 100 µM (inactive)
- GI50 [11]: > 100 µM (inactive)
- GI50 [12]: > 100 µM (inactive)
- GI50 [13]: > 100 µM
- GI50 [14]: > 100 µM (inactive)
- GI50 [15]: > 100 µM (inactive)
- GI50 [16]: > 100 µM (inactive)
- GI50 [17]: > 100 µM (inactive)
- GI50 [18]: > 100 µM (inactive)
- GI50 [19]: > 100 µM (inactive)
- GI50 [20]: > 100 µM (inactive)
- GI50 [21]: > 100 µM (inactive)
- GI50 [22]: > 100 µM (inactive)
- GI50 [23]: 50.4 µM (inactive)
- GI50 [24]: > 100 µM (inactive)
- GI50 [25]: > 100 µM (inactive)
- GI50 [26]: > 100 µM (inactive)
- GI50 [27]: > 100 µM (inactive)
- GI50 [28]: > 100 µM (inactive)
- GI50 [29]: > 100 µM (inactive)
- GI50 [30]: > 100 µM (inactive)
- GI50 [31]: > 100 µM (inactive)
- GI50 [32]: > 100 µM (inactive)
- GI50 [33]: > 100 µM (inactive)
- GI50 [34]: > 100 µM (inactive)
- GI50 [35]: 21.2 µM (inactive)
- GI50 [36]: > 100 µM (inactive)
- GI50 [37]: > 100 µM (inactive)
- GI50 [38]: 91 µM (inactive)
- GI50 [39]: > 100 µM (inactive)
- GI50 [40]: 43.3 µM (inactive)
- GI50 [41]: > 100 µM (inactive)
- GI50 [42]: 82 µM (inactive)
- GI50 [43]: > 100 µM (inactive)
- GI50 [44]: > 100 µM (inactive)
- GI50 [45]: > 100 µM (inactive)
- GI50 [46]: > 100 µM (inactive)

Compound: Cc1ccc(S(=O)(=O)NCC2CCCCC2=O)cc1 (centres undefined)
- GI50 [47]: > 100 µM (inactive)
- GI50 [1]: 10.2 µM (inactive)
- GI50 [48]: > 100 µM (inactive)
- GI50 [3]: > 100 µM (inactive)
- GI50 [4]: > 100 µM (inactive)
- GI50 [5]: 22.9 µM (inactive)
- GI50 [6]: > 100 µM (inactive)
- GI50 [7]: 66.5 µM (inactive)
- GI50 [49]: > 100 µM (inactive)
- GI50 [8]: > 100 µM (inactive)
- GI50 [9]: 82.4 µM (inactive)
- GI50 [50]: > 100 µM (inactive)
- GI50 [11]: > 100 µM (inactive)
- GI50 [12]: > 100 µM (inactive)
- GI50 [51]: 16.4 µM (inactive)
- GI50 [13]: > 100 µM
- GI50 [14]: 24.2 µM (inactive)
- GI50 [15]: > 100 µM (inactive)
- GI50 [16]: 45.3 µM (inactive)
- GI50 [17]: > 100 µM (inactive)
- GI50 [18]: 49.7 µM (inactive)
- GI50 [19]: > 100 µM (inactive)
- GI50 [52]: 70 µM (inactive)
- GI50 [20]: > 100 µM (inactive)
- GI50 [21]: > 100 µM (inactive)
- GI50 [22]: > 100 µM (inactive)
- GI50 [53]: 15 µM (inactive)
- GI50 [23]: > 100 µM (inactive)
- GI50 [24]: > 100 µM (inactive)
- GI50 [25]: 66.1 µM (inactive)
- GI50 [26]: > 100 µM (inactive)
- GI50 [28]: > 100 µM (inactive)
- GI50 [54]: 56.8 µM (inactive)
- GI50 [29]: > 100 µM (inactive)
- GI50 [30]: > 100 µM (inactive)
- GI50 [31]: > 100 µM (inactive)
- GI50 [32]: > 100 µM (inactive)
- GI50 [33]: 51.9 µM (inactive)
- GI50 [34]: > 100 µM (inactive)
- GI50 [35]: 40.8 µM (inactive)
- GI50 [55]: > 100 µM (inactive)
- GI50 [36]: > 100 µM (inactive)
- GI50 [37]: > 100 µM (inactive)
- GI50 [38]: > 100 µM (inactive)
- GI50 [39]: > 100 µM (inactive)
- GI50 [40]: > 100 µM (inactive)
- GI50 [41]: > 100 µM (inactive)
- GI50 [42]: 57.3 µM (inactive)
- GI50 [56]: > 100 µM (inactive)
- GI50 [43]: > 100 µM (inactive)
- GI50 [44]: > 100 µM (inactive)
- GI50 [45]: 69.3 µM (inactive)
- GI50 [46]: > 100 µM (inactive)
